Measured values reported in US20170107207A1, “AMINOPYRAZOLONE DERIVATIVE” (DAIICHI SANKYO COMPANY, LIMITED, priority 2014, published 2017).

Key:
TIP48/TIP49 complex = molecular target: T1, TIP48/TIP49 complex (Homo sapiens, UniProt Q9Y230+Q9Y265); experiment: ATPase assay of TIP48/TIP49 complex (ADP-Glo); assay type: biochemical; settings: concentration at which the ATPase activity was inhibited by 50%
T1 construct: made in house; host or cells: E. coli
How it was run: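 Compound was tested over 10 four-fold concentrations, 200 μM down to 0.0007 μM at 2% DMSO, against E. coli-derived human rTIP48/rTIP49 for 1.5 h at room temperature, pH 7.5 with ATP. ATP hydrolysis was read as ADP-Glo luminescence, normalised to complex-only and no-complex wells, then fitted to dose-response curves.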

[1] = system: human lymphoma cell line RAMOS cells; experiment: Cell growth inhibition test using RAMOS cell, ATP assay (CellTiter-Glo); assay type: cell-based; settings: Homo sapiens, 72 h, cultured 3 days, 50% growth inhibition concentration
How it was run: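 RAMOS cells seeded at 4000 cells/well with compound and cultured 3 days at 37° C, 5% CO2; viability by CellTiter-Glo luminescence. Growth rate T/C % = 100×[(B−C)/(A−C)] using day-0 and final readings; GI50 interpolated from the two concentrations bracketing 50% growth.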

T1 sequence (Q9Y230 whole entry): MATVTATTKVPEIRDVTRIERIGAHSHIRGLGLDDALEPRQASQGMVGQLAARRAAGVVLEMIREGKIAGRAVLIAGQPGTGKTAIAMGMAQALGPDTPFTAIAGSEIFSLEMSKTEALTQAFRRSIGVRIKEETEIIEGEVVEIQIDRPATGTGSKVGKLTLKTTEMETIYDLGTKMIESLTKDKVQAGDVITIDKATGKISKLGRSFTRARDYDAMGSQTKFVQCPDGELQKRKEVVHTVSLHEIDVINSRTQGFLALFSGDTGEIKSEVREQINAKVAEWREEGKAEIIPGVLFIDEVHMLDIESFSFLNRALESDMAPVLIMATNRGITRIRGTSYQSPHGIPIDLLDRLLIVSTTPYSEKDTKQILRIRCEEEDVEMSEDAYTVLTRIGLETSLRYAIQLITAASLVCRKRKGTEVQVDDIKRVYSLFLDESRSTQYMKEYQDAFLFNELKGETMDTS
T1 sequence (Q9Y265 whole entry): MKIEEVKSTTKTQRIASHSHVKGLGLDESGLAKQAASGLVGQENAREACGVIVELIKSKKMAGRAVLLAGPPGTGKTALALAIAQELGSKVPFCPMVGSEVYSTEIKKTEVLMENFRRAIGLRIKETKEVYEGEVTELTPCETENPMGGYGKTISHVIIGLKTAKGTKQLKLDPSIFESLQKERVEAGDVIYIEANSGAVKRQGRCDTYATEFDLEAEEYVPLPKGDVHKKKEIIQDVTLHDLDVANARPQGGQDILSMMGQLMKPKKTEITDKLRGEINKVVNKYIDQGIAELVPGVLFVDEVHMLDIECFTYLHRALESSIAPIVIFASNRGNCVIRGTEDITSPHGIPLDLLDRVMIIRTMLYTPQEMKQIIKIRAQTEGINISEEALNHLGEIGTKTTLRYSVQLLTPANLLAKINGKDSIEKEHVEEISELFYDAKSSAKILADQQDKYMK

Question: For `CCOc1cc(F)c(Cl)cc1C(=O)NCC(C)(C)CC(=O)Nc1c(C(CN(C)C)OC)n(C)n(-c2ccccc2)c1=O` (stereo not drawn) [Example 80, 5-Chloro-N-[4-({5-[2-(dimethylamino)-1-methoxyethyl]-1-methyl-3-oxo-2-phenyl-2,3-dihydro-1H-pyrazol-4-yl}amino)-2,2-dimethyl-4-oxobutyl]-2-ethoxy-4-fluorobenzamide], which IC50 (TIP48/TIP49 complex) is on record?
Answer: 140 nM

Question: What about the GI50 ([1]; Ramos) of the same compound?
Answer: 170 nM

Question: With `CCOc1ncc(Cl)cc1C(=O)NCC(C)(C)CC(=O)Nc1c(C(CN(C)C)OC)n(C)n(-c2ccccc2)c1=O` (stereo not drawn) [Example 81, 5-Chloro-N-[4-({5-[2-(dimethylamino)-1-methoxyethyl]-1-methyl-3-oxo-2-phenyl-2,3-dihydro-1H-pyrazol-4-yl}amino)-2,2-dimethyl-4-oxobutyl]-2-ethoxypyridine-3-carboxamide] as the compound, how does the IC50 (TIP48/TIP49 complex) read?
Answer: 210 nM

Question: What about the GI50 ([1]; Ramos) of the same compound?
Answer: 410 nM

Question: Which IC50 (TIP48/TIP49 complex) does the source give for `CCOc1ccc(Cl)cc1C(=O)NCC(C)(C)CC(=O)Nc1c(C(C)(C)CN(C)C)n(C)n(-c2ccccc2)c1=O` [Example 84, 5-Chloro-N-[4-({5-[2-(dimethylamino)-1,1-dimethylethyl]-1-methyl-3-oxo-2-phenyl-2,3-dihydro-1H-pyrazol-4-yl}amino)-2,2-dimethyl-4-oxobutyl]-2-ethoxybenzamide] here?
Answer: 80 nM

Question: What about the GI50 ([1]; Ramos) of the same compound?
Answer: 170 nM

Question: What does the source list for `CCOc1ccc(Cl)cc1C(=O)NCC(C)(C)CC(=O)Nc1c(C(C)C(C)(C)N(C)C)n(C)n(-c2ccccc2)c1=O` (stereo not drawn) [Example 87, 5-Chloro-N-[4-({5-[2-(dimethylamino)-1,2-dimethylpropyl]-1-methyl-3-oxo-2-phenyl-2,3-dihydro-1H-pyrazol-4-yl}amino)-2,2-dimethyl-4-oxobutyl]-2-ethoxybenzamide]?
Answer: IC50 (TIP48/TIP49 complex): 52 nM; GI50 ([1]; Ramos): 120 nM

Question: With `CCOc1cc(F)c(Cl)cc1C(=O)NCC(C)(C)CC(=O)Nc1c(CCCCN(C)C)n(C)n(-c2ccccc2)c1=O` [Example 89, 5-Chloro-N-[4-({5-[4-(dimethylamino)butyl]-1-methyl-3-oxo-2-phenyl-2,3-dihydro-1H-pyrazol-4-yl}amino)-2,2-dimethyl-4-oxobutyl]-2-ethoxy-4-fluorobenzamide] as the compound, how does the IC50 (TIP48/TIP49 complex) read?
Answer: 90 nM

Question: And the GI50 ([1]; Ramos)?
Answer: 170 nM

Question: Which results are given for `Cc1cc2cc(Cl)cc(C(=O)NCC(C)(C)CC(=O)Nc3c(CCCCN(C)C)n(C)n(-c4ccccc4)c3=O)c2o1` [Example 90, 5-Chloro-N-[4-({5-[4-(dimethylamino)butyl]-1-methyl-3-oxo-2-phenyl-2,3-dihydro-1H-pyrazol-4-yl}amino)-2,2-dimethyl-4-oxobutyl]-2-methylbenzofuran-7-carboxamide]?
Answer: IC50 (TIP48/TIP49 complex): 28 nM; GI50 ([1]; Ramos): 140 nM

Question: Which results are given for `CCOc1ccc(Cl)cc1C(=O)NCC(C)(C)C(F)C(=O)Nc1c(CCN(C)C)n(C)n(-c2ccccc2)c1=O` (stereo not drawn) [Example 91, 5-Chloro-N-[4-({5-[2-(dimethylamino)ethyl]-1-methyl-3-oxo-2-phenyl-2,3-dihydro-1H-pyrazol-4-yl}amino)-3-fluoro-2,2-dimethyl-4-oxobutyl]-2-ethoxybenzamide]?
Answer: IC50 (TIP48/TIP49 complex): 110 nM; GI50 ([1]; Ramos): 180 nM

Question: Which results are given for `CCOc1cc(F)c(Cl)cc1C(=O)NCC(C)(C)CC(=O)Nc1c(C)n(C)n(-c2ccccc2)c1=O` [Example 92, 5-Chloro-N-{4-[(1,5-dimethyl-3-oxo-2-phenyl-2,3-dihydro-1H-pyrazol-4-yl)amino]-2,2-dimethyl-4-oxobutyl}-2-ethoxy-4-fluorobenzamide]?
Answer: IC50 (TIP48/TIP49 complex): 26 nM; GI50 ([1]; Ramos): 560 nM

Question: Which IC50 (TIP48/TIP49 complex) does the source give for `COCOc1ccc(Cl)cc1C(=O)NCC(C)(C)CC(=O)Nc1c(COC)n(C)n(-c2ccccc2)c1=O` [Example 115, 5-Chloro-2-(methoxymethoxy)-N-(4-{[5-(methoxymethyl)-1-methyl-3-oxo-2-phenyl-2,3-dihydro-1H-pyrazol-4-yl]amino}-2,2-dimethyl-4-oxobutyl)benzamide] here?
Answer: 41 nM

Question: What about the GI50 ([1]; Ramos) of the same compound?
Answer: 130 nM

Question: How did the IC50 (TIP48/TIP49 complex) turn out when `COCOc1cc(F)c(Cl)cc1C(=O)NCC(C)(C)CC(=O)Nc1c(COC)n(C)n(-c2ccccc2)c1=O` [Example 116, 5-Chloro-4-fluoro-2-(methoxymethoxy)-N-(4-{[5-(methoxymethyl)-1-methyl-3-oxo-2-phenyl-2,3-dihydro-1H-pyrazol-4-yl]amino}-2,2-dimethyl-4-oxobutyl)benzamide] was run?
Answer: 14 nM

Question: And the GI50 ([1]; Ramos)?
Answer: 140 nM

Question: For `CCOc1cc(F)c(Cl)cc1C(=O)NCC(C)(C)CC(=O)Nc1c(C(C)OC)n(C)n(-c2ccccc2)c1=O` (stereo not drawn) [Example 122, 5-Chloro-2-ethoxy-4-fluoro-N-(4-{[5-(1-methoxyethyl)-1-methyl-3-oxo-2-phenyl-2,3-dihydro-1H-pyrazol-4-yl]amino}-2,2-dimethyl-4-oxobutyl)benzamide], which IC50 (TIP48/TIP49 complex) is on record?
Answer: 460 nM

Question: And the GI50 ([1]; Ramos)?
Answer: 140 nM

Question: With `CCOc1cc(F)c(Cl)cc1C(=O)NCC(C)(C)CC(=O)Nc1c([C@H](C)OC)n(C)n(-c2ccccc2)c1=O` [Example 123, 5-Chloro-2-ethoxy-4-fluoro-N-(4-{[5-((1S)-methoxyethyl)-1-methyl-3-oxo-2-phenyl-2,3-dihydro-1H-pyrazol-4-yl]amino}-2,2-dimethyl-4-oxobutyl)benzamide] as the compound, how does the IC50 (TIP48/TIP49 complex) read?
Answer: 39 nM

Question: What about the GI50 ([1]; Ramos) of the same compound?
Answer: 120 nM

Question: Which IC50 (TIP48/TIP49 complex) does the source give for `CCOc1cc(F)c(Cl)cc1C(=O)NCC(C)(C)CC(=O)Nc1c([C@@H](C)OC)n(C)n(-c2ccccc2)c1=O` [Example 124, 5-Chloro-2-ethoxy-4-fluoro-N-(4-{[5-((1R)-1-methoxyethyl)-1-methyl-3-oxo-2-phenyl-2,3-dihydro-1H-pyrazol-4-yl]amino}-2,2-dimethyl-4-oxobutyl)benzamide] here?
Answer: 38 nM

Question: What about the GI50 ([1]; Ramos) of the same compound?
Answer: 140 nM

Question: Which IC50 (TIP48/TIP49 complex) does the source give for `CCOc1ccc(Cl)cc1C(=O)NCC(C)(C)CC(=O)Nc1c(C(C)OC)n(C)n(-c2ccccc2)c1=O` (stereo not drawn) [Example 125, 5-Chloro-2-ethoxy-N-(4-{[5-(1-methoxyethyl)-1-methyl-3-oxo-2-phenyl-2,3-dihydro-1H-pyrazol-4-yl]amino}-2,2-dimethyl-4-oxobutyl)benzamide] here?
Answer: 36 nM

Question: And the GI50 ([1]; Ramos)?
Answer: 140 nM

Question: With `CCOc1ncc(Cl)cc1NC(=O)CC(C)(C)CC(=O)Nc1c(C(C)OC)n(C)n(-c2ccccc2)c1=O` (stereo not drawn) [Example 126, N-(5-Chloro-2-ethoxy-3-pyridyl)-N′-[5-(1-methoxyethyl)-1-methyl-3-oxo-2-phenyl-2,3-dihydro-1H-pyrazol-4-yl]-3,3-dimethylpentanediamide] as the compound, how does the IC50 (TIP48/TIP49 complex) read?
Answer: 56 nM

Question: What about the GI50 ([1]; Ramos) of the same compound?
Answer: 580 nM

Question: `CCc1c(NC(=O)CC(C)(C)CNC(=O)c2cc(Cl)ccc2OCOC)c(=O)n(-c2ccccc2)n1C` [Example 127, 5-Chloro-N-{4-[(5-ethyl-1-methyl-3-oxo-2-phenyl-2,3-dihydro-1H-pyrazol-4-yl)amino]-2,2-dimethyl-4-oxobutyl}-2-(methoxymethoxy)benzamide] was tested. Which IC50 (TIP48/TIP49 complex) did it give?
Answer: 55 nM

Question: What about the GI50 ([1]; Ramos) of the same compound?
Answer: 130 nM

Question: With `CCOc1ccc(Cl)cc1C(=O)NCC(C)(C)CC(=O)Nc1c(CCCC(=O)N(C)C)n(C)n(-c2ccccc2)c1=O` [Example 129, 5-Chloro-N-[4-({5-[4-(dimethylamino)-4-oxobutyl]-1-methyl-3-oxo-2-phenyl-2,3-dihydro-1H-pyrazol-4-yl}amino)-2,2-dimethyl-4-oxobutyl]-2-ethoxybenzamide] as the compound, how does the IC50 (TIP48/TIP49 complex) read?
Answer: 52 nM

Question: What about the GI50 ([1]; Ramos) of the same compound?
Answer: 190 nM

Question: With `CCOc1ccc(Cl)cc1C(=O)NCC(C)(C)CC(=O)Nc1c(CCCCO)n(C)n(-c2ccccc2)c1=O` [Example 130, 5-Chloro-2-ethoxy-N-(4-{[5-(4-hydroxybutyl)-1-methyl-3-oxo-2-phenyl-2,3-dihydro-1H-pyrazol-4-yl]amino}-2,2-dimethyl-4-oxobutyl)benzamide] as the compound, how does the IC50 (TIP48/TIP49 complex) read?
Answer: 54 nM

Question: What about the GI50 ([1]; Ramos) of the same compound?
Answer: 64 nM

Question: What does the source list for `CCOc1ccc(Cl)cc1C(=O)NCC(C)(C)CC(=O)Nc1c(CC(=O)OC)n(C)n(-c2ccccc2)c1=O` [Example 131, Methyl 2-[4-({4-[(5-chloro-2-ethoxybenzoyl)amino]-3,3-dimethylbutanoyl}amino)-2-methyl-5-oxo-1-phenyl-2,3-dihydro-1H-pyrazol-3-yl]acetate]?
Answer: IC50 (TIP48/TIP49 complex): 62 nM; GI50 ([1]; Ramos): 130 nM

Question: `CCOc1ccc(Cl)cc1C(=O)NCC(C)(C)CC(=O)Nc1c(CC(N)=O)n(C)n(-c2ccccc2)c1=O` [Example 132, N-(4-{[5-(2-Amino-2-oxoethyl)-1-methyl-3-oxo-2-phenyl-2,3-dihydro-1H-pyrazol-4-yl]amino}-2,2-dimethyl-4-oxobutyl)-5-chloro-2-ethoxybenzamide] was tested. Which IC50 (TIP48/TIP49 complex) did it give?
Answer: 100 nM

Question: What about the GI50 ([1]; Ramos) of the same compound?
Answer: 120 nM

Question: `CCOc1ccc(Cl)cc1C(=O)NCC(C)(C)CC(=O)Nc1c(CCC(=O)N2CCCC2)n(C)n(-c2ccccc2)c1=O` [Example 133, 5-Chloro-N-(2,2-dimethyl-4-{[1-methyl-3-oxo-5-(3-oxo-3-pyrrolidin-1-ylpropyl)-2-phenyl-2,3-dihydro-1H-pyrazol-4-yl]amino}-4-oxobutyl)-2-ethoxybenzamide] was tested. Which IC50 (TIP48/TIP49 complex) did it give?
Answer: 81 nM

Question: And the GI50 ([1]; Ramos)?
Answer: 500 nM

Question: With `CCOc1ccc(Cl)cc1C(=O)NCC(CF)(CF)CC(=O)Nc1c(COC)n(C)n(-c2ccccc2)c1=O` [Example 148, N-(2,2-Bis(fluoromethyl)-4-{[5-(methoxymethyl)-1-methyl-3-oxo-2-phenyl-2,3-dihydro-1H-pyrazol-4-yl]amino}-4-oxobutyl)-5-chloro-2-ethoxybenzamide] as the compound, how does the IC50 (TIP48/TIP49 complex) read?
Answer: 83 nM

Question: And the GI50 ([1]; Ramos)?
Answer: 230 nM

Question: For `CCOc1ccc(Cl)cc1C(=O)NCC(C)(C)CC(=O)Nc1c(CCC(F)(F)F)n(C)n(-c2ccccc2)c1=O` [Example 158, 5-Chloro-N-(2,2-dimethyl-4-{[1-methyl-3-oxo-2-phenyl-5-(3,3,3-trifluoropropyl)pyrazol-4-yl]amino}-4-oxobutyl)-2-ethoxybenzamide], which IC50 (TIP48/TIP49 complex) is on record?
Answer: 33 nM

Question: And the GI50 ([1]; Ramos)?
Answer: 310 nM

Question: Which results are given for `CCOc1cc(F)c(Cl)cc1C(=O)NCC(C)(C)C(C)C(=O)Nc1c(COC)n(C)n(-c2ccccc2)c1=O` (stereo not drawn) [Example 159, 5-Chloro-2-ethoxy-4-fluoro-N-(4-{[5-(methoxymethyl)-1-methyl-3-oxo-2-phenyl-2,3-dihydro-1H-pyrazol-4-yl]amino}-2,2,3-trimethyl-4-oxobutyl)benzamide]?
Answer: IC50 (TIP48/TIP49 complex): 77 nM; GI50 [1]: 840 nM
